This passage reports nematicidal activity results from patent US20220119761A1, “ASPERGILLUS NIGER F22 STRAIN HAVING NEMATICIDAL ACTIVITY AGAINST PLANT-PARASITIC NEMATODES, AND USE THEREOF” (INDUSTRY FOUNDATION OF CHONNAM NATIONAL UNIVERSITY, priority 2015, published 2022).

The assay concerns Meloidogyne incognita. The assay is described as follows: 96-well microplate bioassay of nematicidal activity of culture filtrates on Meloidogyne spp. larva suspension. The conditions noted are these: 1 μg/mL, control drug, after 3 days. The procedure:
To select filamentous fungi having an excellent nematicidal activity, the present inventors have received 61 culture filtrates of filamentous fungi to screen their nematicidal activities. Specifically, roots of a tomato plant infected with Meloidogyne spp. were washed with running water to remove foreign substances. Thereafter, the well-washed roots were cut into pieces at intervals of 1 cm or less, and put into a blender. Then, a 0.5% sodium hypochlorite solution was added at such an amount that the roots were immersed, and the roots were ground for one minute. Subsequently, the ground roots were filtered through a 65 μm sieve to remove root debris, and the eggs passed through the sieve were collected through a 25 μm sieve, and then washed with sterilized water several times. A concentration of the collected Meloidogyne spp. eggs was measured using a stereoscopic microscope.
The nematicidal activities of the culture filtrates of the 61 fungi were screened using a 96-well microplate bioassay. 45 μL of a Meloidogyne spp. larva suspension, which includes approximately 50 larvae, was added to each of holes, and then treated with a 10% culture filtrate. After 3 days of the sample treatment, the nematicidal activity was determined using the following equation. […]

Regarding abamectin, the nematicidal activity is recorded as 95%.
